{"source": "PubChem BioAssay (NCI)", "assay_in_all_cases": "NCI anticancer screen, dose series, 48 h", "key": {"[1]": {"test_system": "NCI-H23 lung"}, "[2]": {"test_system": "KM12 colon"}, "[3]": {"test_system": "MCF7 breast"}, "[4]": {"test_system": "OVCAR-4 ovarian"}, "[5]": {"test_system": "NCI-H460 lung"}, "[6]": {"test_system": "RPMI-8226 leukemia"}, "[7]": {"test_system": "OVCAR-5 ovarian"}, "[8]": {"test_system": "A498 renal"}, "[9]": {"test_system": "A549 NSCLC"}, "[10]": {"test_system": "UACC-62 melanoma"}}, "note": "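Cells were grown in 96-well plates and exposed to each compound for 48 hours at five concentrations; endpoints were interpolated linearly between bracketing concentrations, or set to the highest concentration if not reached. GI50: concentration for 50% inhibition of growth. At the TGI there is no net growth.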", "data": [{"compound": "C[CH2][Sn]([CH2]C)([O]C(=O)C(OC(C)=O)c1ccccc1)[O]C(=O)C(OC(C)=O)c1ccccc1", "note": "(configuration not stated)", "values": [{"measurement": "GI50", "setting": "[1]", "value": 15.5, "unit": "µM"}, {"measurement": "TGI", "setting": "[1]", "value": 29.8, "unit": "µM"}, {"measurement": "GI50", "setting": "[2]", "value": "> 100", "unit": "µM"}, {"measurement": "TGI", "setting": "[2]", "value": "> 100", "unit": "µM"}, {"measurement": "GI50", "setting": "[3]", "value": 14.6, "unit": "µM"}, {"measurement": "TGI", "setting": "[3]", "value": 27.8, "unit": "µM"}, {"measurement": "GI50", "setting": "[4]", "value": 50, "unit": "µM"}, {"measurement": "TGI", "setting": "[4]", "value": "> 100", "unit": "µM"}, {"measurement": "GI50", "setting": "[5]", "value": "> 100", "unit": "µM"}, {"measurement": "TGI", "setting": "[5]", "value": "> 100", "unit": "µM"}, {"measurement": "GI50", "setting": "[6]", "value": 11.2, "unit": "µM"}, {"measurement": "TGI", "setting": "[6]", "value": 36.9, "unit": "µM"}, {"measurement": "GI50", "setting": "[7]", "value": 41.2, "unit": "µM"}, {"measurement": "TGI", "setting": "[7]", "value": "> 100", "unit": "µM"}, {"measurement": "GI50", "setting": "[8]", "value": 19.8, "unit": "µM"}, {"measurement": "TGI", "setting": "[8]", "value": 35.6, "unit": "µM"}, {"measurement": "GI50", "setting": "[9]", "value": "> 100", "unit": "µM"}, {"measurement": "TGI", "setting": "[9]", "value": "> 100", "unit": "µM"}]}, {"compound": "O=C1c2ccccc2-c2c1c1ccccc1c(=O)n2CCN1CCOCC1", "values": [{"measurement": "GI50", "setting": "[2]", "value": 61.8, "unit": "µM"}, {"measurement": "TGI", "setting": "[2]", "value": "> 100", "unit": "µM"}, {"measurement": "GI50", "setting": "[3]", "value": 43.7, "unit": "µM"}, {"measurement": "TGI", "setting": "[3]", "value": "> 100", "unit": "µM"}, {"measurement": "GI50", "setting": "[4]", "value": "> 100", "unit": "µM"}, {"measurement": "TGI", "setting": "[4]", "value": "> 100", "unit": "µM"}, {"measurement": "GI50", "setting": "[5]", "value": 55.4, "unit": "µM"}, {"measurement": "TGI", "setting": "[5]", "value": "> 100", "unit": "µM"}, {"measurement": "GI50", "setting": "[6]", "value": 39, "unit": "µM"}, {"measurement": "TGI", "setting": "[6]", "value": "> 100", "unit": "µM"}, {"measurement": "GI50", "setting": "[7]", "value": "> 100", "unit": "µM"}, {"measurement": "TGI", "setting": "[7]", "value": "> 100", "unit": "µM"}, {"measurement": "GI50", "setting": "[10]", "value": 29.4, "unit": "µM"}, {"measurement": "TGI", "setting": "[10]", "value": "> 100", "unit": "µM"}, {"measurement": "GI50", "setting": "[9]", "value": 64.8, "unit": "µM"}, {"measurement": "TGI", "setting": "[9]", "value": "> 100", "unit": "µM"}]}, {"compound": "COc1ccc(C(=O)C(c2ccc(OC)cc2)C2(O)C(=O)Nc3c2ccc(Cl)c3C)cc1", "note": "(configuration not stated)", "values": [{"measurement": "TGI", "setting": "[1]", "value": "> 100", "unit": "µM"}, {"measurement": "TGI", "setting": "[2]", "value": "> 100", "unit": "µM"}, {"measurement": "TGI", "setting": "[4]", "value": "> 100", "unit": "µM"}, {"measurement": "TGI", "setting": "[5]", "value": "> 100", "unit": "µM"}, {"measurement": "TGI", "setting": "[6]", "value": "> 100", "unit": "µM"}, {"measurement": "TGI", "setting": "[7]", "value": "> 100", "unit": "µM"}, {"measurement": "TGI", "setting": "[10]", "value": "> 100", "unit": "µM"}, {"measurement": "TGI", "setting": "[8]", "value": "> 100", "unit": "µM"}, {"measurement": "TGI", "setting": "[9]", "value": "> 100", "unit": "µM"}]}, {"compound": "COc1ccc(C2SC(C)C(=O)N2NC(=O)C(O)c2ccccc2)cc1OC", "note": "(configuration not stated)", "values": [{"measurement": "GI50", "setting": "[2]", "value": "> 100", "unit": "µM"}, {"measurement": "TGI", "setting": "[2]", "value": "> 100", "unit": "µM"}, {"measurement": "GI50", "setting": "[3]", "value": "> 100", "unit": "µM"}, {"measurement": "TGI", "setting": "[3]", "value": "> 100", "unit": "µM"}, {"measurement": "GI50", "setting": "[4]", "value": "> 100", "unit": "µM"}, {"measurement": "TGI", "setting": "[4]", "value": "> 100", "unit": "µM"}, {"measurement": "GI50", "setting": "[5]", "value": "> 100", "unit": "µM"}, {"measurement": "TGI", "setting": "[5]", "value": "> 100", "unit": "µM"}, {"measurement": "GI50", "setting": "[6]", "value": "> 100", "unit": "µM"}, {"measurement": "TGI", "setting": "[6]", "value": "> 100", "unit": "µM"}, {"measurement": "GI50", "setting": "[7]", "value": "> 100", "unit": "µM"}, {"measurement": "TGI", "setting": "[7]", "value": "> 100", "unit": "µM"}, {"measurement": "GI50", "setting": "[10]", "value": "> 100", "unit": "µM"}, {"measurement": "TGI", "setting": "[10]", "value": "> 100", "unit": "µM"}, {"measurement": "GI50", "setting": "[8]", "value": "> 100", "unit": "µM"}, {"measurement": "TGI", "setting": "[8]", "value": "> 100", "unit": "µM"}, {"measurement": "GI50", "setting": "[9]", "value": "> 100", "unit": "µM"}, {"measurement": "TGI", "setting": "[9]", "value": "> 100", "unit": "µM"}]}, {"compound": "COc1ccc2ccccc2c1C1OC(=O)c2ccccc21", "note": "(configuration not stated)", "values": [{"measurement": "TGI", "setting": "[1]", "value": "> 100", "unit": "µM"}, {"measurement": "TGI", "setting": "[2]", "value": "> 100", "unit": "µM"}, {"measurement": "TGI", "setting": "[4]", "value": "> 100", "unit": "µM"}, {"measurement": "TGI", "setting": "[6]", "value": "> 100", "unit": "µM"}, {"measurement": "TGI", "setting": "[7]", "value": "> 100", "unit": "µM"}, {"measurement": "TGI", "setting": "[10]", "value": "> 100", "unit": "µM"}, {"measurement": "TGI", "setting": "[8]", "value": "> 100", "unit": "µM"}, {"measurement": "TGI", "setting": "[9]", "value": "> 100", "unit": "µM"}]}, {"compound": "COc1ccc(OC)c(NC(=O)CCC/C(CC(=O)c2ccc(O)c(OC)c2)=N\\Nc2ccc([N+](=O)[O-])cc2)c1", "values": [{"measurement": "TGI", "setting": "[1]", "value": "> 100", "unit": "µM"}, {"measurement": "TGI", "setting": "[2]", "value": "> 100", "unit": "µM"}, {"measurement": "TGI", "setting": "[4]", "value": "> 100", "unit": "µM"}, {"measurement": "TGI", "setting": "[5]", "value": "> 100", "unit": "µM"}, {"measurement": "TGI", "setting": "[6]", "value": "> 100", "unit": "µM"}, {"measurement": "TGI", "setting": "[7]", "value": "> 100", "unit": "µM"}, {"measurement": "TGI", "setting": "[10]", "value": "> 100", "unit": "µM"}, {"measurement": "TGI", "setting": "[8]", "value": "> 100", "unit": "µM"}, {"measurement": "TGI", "setting": "[9]", "value": "> 100", "unit": "µM"}]}, {"compound": "C[C@]12CC[C@H]3[C@@H](CC[C@]4(O)C[C@@H](O)CC[C@]34/C=N/O)[C@@]1(O)CC[C@@H]2C1=COC(=O)C1", "values": [{"measurement": "TGI", "setting": "[1]", "value": 0.272, "unit": "µM"}, {"measurement": "TGI", "setting": "[2]", "value": 2.51, "unit": "µM"}, {"measurement": "TGI", "setting": "[4]", "value": 0.279, "unit": "µM"}, {"measurement": "TGI", "setting": "[5]", "value": 0.166, "unit": "µM"}, {"measurement": "TGI", "setting": "[7]", "value": 0.998, "unit": "µM"}, {"measurement": "TGI", "setting": "[10]", "value": 0.919, "unit": "µM"}, {"measurement": "TGI", "setting": "[8]", "value": 0.583, "unit": "µM"}, {"measurement": "TGI", "setting": "[9]", "value": 0.115, "unit": "µM"}]}, {"compound": "COc1cc(C2C(Cl)C(=O)N2NC(=O)c2ccc(N)cc2)ccc1O", "note": "(configuration not stated)", "values": [{"measurement": "TGI", "setting": "[1]", "value": 44.8, "unit": "µM"}, {"measurement": "TGI", "setting": "[2]", "value": "> 100", "unit": "µM"}, {"measurement": "TGI", "setting": "[4]", "value": "> 100", "unit": "µM"}, {"measurement": "TGI", "setting": "[5]", "value": "> 100", "unit": "µM"}, {"measurement": "TGI", "setting": "[6]", "value": "> 100", "unit": "µM"}, {"measurement": "TGI", "setting": "[7]", "value": "> 100", "unit": "µM"}, {"measurement": "TGI", "setting": "[10]", "value": "> 100", "unit": "µM"}, {"measurement": "TGI", "setting": "[8]", "value": "> 100", "unit": "µM"}, {"measurement": "TGI", "setting": "[9]", "value": "> 100", "unit": "µM"}]}, {"compound": "CCOC(=O)NC(=O)c1cn(CCCCCCOC(=O)NCCCCCCNC(=O)OCCCCCCn2cc(C(=O)NC(=O)OCC)c(=O)[nH]c2=O)c(=O)[nH]c1=O", "values": [{"measurement": "TGI", "setting": "[2]", "value": "> 100", "unit": "µM"}, {"measurement": "TGI", "setting": "[4]", "value": "> 100", "unit": "µM"}, {"measurement": "TGI", "setting": "[5]", "value": "> 100", "unit": "µM"}, {"measurement": "TGI", "setting": "[6]", "value": "> 100", "unit": "µM"}, {"measurement": "TGI", "setting": "[10]", "value": "> 100", "unit": "µM"}, {"measurement": "TGI", "setting": "[8]", "value": "> 100", "unit": "µM"}, {"measurement": "TGI", "setting": "[9]", "value": "> 100", "unit": "µM"}]}]}
